# According to patent publication US7799821B2, “Therapeutic compounds” (Allergan, Inc., priority 2004, dated 2010):
# Key:
# rabbits = experiment: Ocular surface hyperemia, rabbits; type: in vivo; settings: score
# Protocol: (§1) Ocular surface hyperemia was visually assessed and scored according to a system typically used clinically.
# (§2) Ocular surface hyperemia was evaluated at the same time points as intraocular pressure measurement. It should be noted that untreated dog eyes frequently have a pink/red tone. Thus, values of trace or even mild are not necessarily out of the normal range. Similar tests were used to determine ocular surface hyperemia on monkeys and rabbits.
# monkeys = experiment: Intraocular pressure (IOP) in monkeys; type: in vivo
# Beagle dogs [1] = experiment: Ocular surface hyperemia, dogs; type: in vivo; set-up: key: 0.5: <1 trace; 1 mild; 2: moderate; 3: severe; settings: Conc. 0.10% (0.1%) g/100 mL, score
# Protocol: as §1, §2
# Beagle dogs [2] = experiment: Intraocular pressure (IOP) in dogs, pneumatonometry; type: in vivo; settings: topical, Conc. 0.10% (0.1%) g/100 mL
# Protocol: (§3) Intraocular pressure studies in dogs involved pneumatonometry performed in conscious, Beagle dogs of both sexes (10-15 kg). The animals remained conscious throughout the study and were gently restrained by hand. Drugs were administered topically to one eye as a 25 μL volume drop, the other eye received 25 μL vehicle (0.1% (w/v) polysorbate 80; 10 mM TRIS) as a control. Proparacaine (0.1% w/v) was used for corneal anesthesia during tonometry. Intraocular pressure was determined just before drug administration and at 2, 4 and 6 hr thereafter on each day of the 5 day study. Drug was administered immediately after the first IOP reading.
# as §3, with “(0.1%” for “(0.1% (w/v)”, “80:10” for “80; 10”, “(0.1%)” for “(0.1% w/v)”
# HEP3 = biological target: T1, HEP3 (Homo sapiens, UniProt P43115); experiment: Radioligand binding, EP3; settings: printed in the HEP3 binding column; read-out: Ki (marked "Ki" in BINDING HEP3)
# T1 sequence (P43115 1-390): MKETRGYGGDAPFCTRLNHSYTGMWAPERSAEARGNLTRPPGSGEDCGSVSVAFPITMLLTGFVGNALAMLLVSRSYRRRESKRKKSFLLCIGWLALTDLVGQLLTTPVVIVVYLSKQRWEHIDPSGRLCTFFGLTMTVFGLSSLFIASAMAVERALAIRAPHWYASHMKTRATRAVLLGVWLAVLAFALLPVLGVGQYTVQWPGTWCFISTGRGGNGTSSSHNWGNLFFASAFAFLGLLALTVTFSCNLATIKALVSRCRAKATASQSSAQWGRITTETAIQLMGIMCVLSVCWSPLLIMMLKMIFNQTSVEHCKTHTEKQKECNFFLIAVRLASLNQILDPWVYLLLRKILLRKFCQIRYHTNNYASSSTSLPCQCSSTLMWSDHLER
# hEP2/Gqs5 = biological target: T2, hEP2/Gqs5 (Homo sapiens, UniProt P43116); experiment: FLIPR calcium signal, hEP2; type: cell-based; settings: FLIPR Ca2+ signal, HEK-293(EBNA); read-out: FUNCTIONAL EC50 HEP2
# T2 construct: expressed in transfected cells; host or cells: HEK-293(EBNA)
# T2 sequence (P43116 whole entry): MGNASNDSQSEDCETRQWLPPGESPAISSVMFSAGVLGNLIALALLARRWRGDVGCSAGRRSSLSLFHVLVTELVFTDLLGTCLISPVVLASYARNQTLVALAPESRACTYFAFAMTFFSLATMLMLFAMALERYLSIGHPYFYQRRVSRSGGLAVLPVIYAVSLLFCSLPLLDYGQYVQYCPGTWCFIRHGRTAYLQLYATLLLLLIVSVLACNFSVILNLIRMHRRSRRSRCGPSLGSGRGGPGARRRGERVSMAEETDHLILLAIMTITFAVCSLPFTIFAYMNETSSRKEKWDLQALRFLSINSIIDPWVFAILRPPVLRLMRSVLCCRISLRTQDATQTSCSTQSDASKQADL
# How it was run: (§4)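 HEK-293(EBNA) cells stably expressing the recombinant human receptor were loaded with 2 μM Fluo-4 AM for 45 min and read on FLIPR at 37° C in HBSS-HEPES pH 7.4. Peak fluorescence rise was expressed relative to buffer and standard agonist controls (BW245C, PGE2 or U-46619 by receptor); compounds were run 10^−5 to 10^−11 M in duplicate, n≧3.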
# hIP = biological target: T3, hIP (Homo sapiens, UniProt P43119); experiment: FLIPR calcium signal, hIP; type: cell-based; settings: Table 3, third part
# T3 construct: expressed in transfected cells; host or cells: HEK-293(EBNA)
# T3 sequence (P43119 whole entry): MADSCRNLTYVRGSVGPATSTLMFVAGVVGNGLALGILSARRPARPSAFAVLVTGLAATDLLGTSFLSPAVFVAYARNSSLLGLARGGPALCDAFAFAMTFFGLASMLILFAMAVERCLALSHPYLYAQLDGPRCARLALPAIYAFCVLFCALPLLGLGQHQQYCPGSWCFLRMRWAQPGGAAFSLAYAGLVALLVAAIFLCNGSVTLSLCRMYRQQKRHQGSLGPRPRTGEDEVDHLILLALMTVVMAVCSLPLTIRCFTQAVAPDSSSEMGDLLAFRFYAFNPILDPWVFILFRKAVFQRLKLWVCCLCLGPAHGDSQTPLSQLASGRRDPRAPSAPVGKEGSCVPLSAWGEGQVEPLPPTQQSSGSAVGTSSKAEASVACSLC
# Protocol: (§5) HEK-293(EBNA) cells, stably expressing one type or subtype of recombinant human prostaglandin receptors (prostaglandin receptors expressed: hDP/Gqs5; hEP1; hEP2/Gqs5; hEP3A/Gqi5; hEP4/Gqs5; hFP; hIP; hTP), were cultured in 100 mm culture dishes in high-glucose DMEM medium containing 10% fetal bovine serum, 2 mM 1-glutamine, 250 μg/ml geneticin (G418) and 200 μg/ml hygromycin B as selection markers, and 100 units/ml penicillin G, 100 μg/ml streptomycin and 0.25 μg/ml amphotericin B. • (b) Calcium Signal Studies on the FLIPR™
# (§6) Cells were seeded at a density of 5×10^4 cells per well in Biocoat® Poly-D-lysine-coated black-wall, clear-bottom 96-well plates (Becton-Dickinson) and allowed to attach overnight in an incubator at 37° C. Cells were then washed two times with HBSS-HEPES buffer (Hanks Balanced Salt Solution without bicarbonate and phenol red, 20 mM HEPES, pH 7.4) using a Denley Cellwash plate washer (Labsystems). After 45 minutes of dye-loading in the dark, using the calcium-sensitive dye Fluo-4 AM at a final concentration of 2 μM, plates were washed four times with HBSS-HEPES buffer to remove excess dye leaving 100 μl in each well. Plates were re-equilibrated to 37° C. for a few minutes.
# (§7) Cells were excited with an Argon laser at 488 nm, and emission was measured through a 510-570 nm bandwidth emission filter (FLIPR™, Molecular Devices, Sunnyvale, Calif.). Drug solution was added in a 50 μl volume to each well to give the desired final concentration. The peak increase in fluorescence intensity was recorded for each well. On each plate, four wells each served as negative (HBSS-HEPES buffer) and positive controls (standard agonists: BW245C (hDP); PGE2 (hEP1; hEP2/Gqs5; hEP3A/Gqi5; hEP4/Gqs5); PGF2α (hFP); carbacyclin (hIP); U-46619 (hTP), depending on receptor). The peak fluorescence change in each drug-containing well was then expressed relative to the controls.
# (§8) Compounds were tested in a high-throughput (HTS) or concentration-response (CoRe) format. In the HTS format, forty-four compounds per plate were examined in duplicates at a concentration of 10^−5 M. To generate concentration-response curves, four compounds per plate were tested in duplicates in a concentration range between 10^−5 and 10^−11 M. The duplicate values were averaged. In either, HTS or CoRe format each compound was tested on at least 3 separate plates using cells from different passages to give an n≧3.
# hFP = biological target: T4, hFP (Homo sapiens, UniProt P43088); experiment: FLIPR calcium signal, hFP; type: cell-based; settings: Table 3, third part
# T4 construct: expressed in transfected cells; host or cells: HEK-293(EBNA)
# T4 sequence (P43088 whole entry): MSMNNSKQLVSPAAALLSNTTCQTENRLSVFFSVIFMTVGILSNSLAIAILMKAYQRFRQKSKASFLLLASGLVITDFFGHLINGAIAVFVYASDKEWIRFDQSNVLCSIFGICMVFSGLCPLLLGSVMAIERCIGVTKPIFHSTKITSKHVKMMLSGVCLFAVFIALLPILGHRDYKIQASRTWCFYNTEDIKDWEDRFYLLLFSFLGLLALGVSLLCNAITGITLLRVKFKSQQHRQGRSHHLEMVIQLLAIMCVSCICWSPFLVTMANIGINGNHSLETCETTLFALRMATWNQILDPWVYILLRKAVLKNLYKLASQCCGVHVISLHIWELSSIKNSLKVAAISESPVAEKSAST
# Protocol: as §5, §6, §7
# Compounds were tested in a high-throughput (HTS) or concentration-response (CoRe) format. […]
# hTP = biological target: T5, hTP (Homo sapiens, UniProt P21731); experiment: FLIPR calcium signal, hTP; type: cell-based; settings: Table 3, third part
# T5 construct: expressed in transfected cells; host or cells: HEK-293(EBNA)
# T5 sequence (P21731 1-343): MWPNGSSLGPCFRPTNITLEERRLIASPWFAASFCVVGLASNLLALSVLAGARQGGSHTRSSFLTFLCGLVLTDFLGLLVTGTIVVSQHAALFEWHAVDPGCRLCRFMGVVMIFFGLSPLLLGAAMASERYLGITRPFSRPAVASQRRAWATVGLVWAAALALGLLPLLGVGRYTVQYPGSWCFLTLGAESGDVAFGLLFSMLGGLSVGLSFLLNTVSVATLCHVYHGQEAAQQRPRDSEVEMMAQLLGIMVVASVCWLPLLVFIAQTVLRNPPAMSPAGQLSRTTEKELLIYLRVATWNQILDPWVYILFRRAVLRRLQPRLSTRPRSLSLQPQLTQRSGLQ
# Protocol: as §5, §6, §7, §8
# hEP4/Gqs5 = biological target: T6, hEP4/Gqs5 (Homo sapiens, UniProt P35408); experiment: FLIPR calcium signal, hEP4; type: cell-based; settings: Table 3, third part
# T6 construct: expressed in transfected cells; host or cells: HEK-293(EBNA)
# T6 sequence (P35408 whole entry): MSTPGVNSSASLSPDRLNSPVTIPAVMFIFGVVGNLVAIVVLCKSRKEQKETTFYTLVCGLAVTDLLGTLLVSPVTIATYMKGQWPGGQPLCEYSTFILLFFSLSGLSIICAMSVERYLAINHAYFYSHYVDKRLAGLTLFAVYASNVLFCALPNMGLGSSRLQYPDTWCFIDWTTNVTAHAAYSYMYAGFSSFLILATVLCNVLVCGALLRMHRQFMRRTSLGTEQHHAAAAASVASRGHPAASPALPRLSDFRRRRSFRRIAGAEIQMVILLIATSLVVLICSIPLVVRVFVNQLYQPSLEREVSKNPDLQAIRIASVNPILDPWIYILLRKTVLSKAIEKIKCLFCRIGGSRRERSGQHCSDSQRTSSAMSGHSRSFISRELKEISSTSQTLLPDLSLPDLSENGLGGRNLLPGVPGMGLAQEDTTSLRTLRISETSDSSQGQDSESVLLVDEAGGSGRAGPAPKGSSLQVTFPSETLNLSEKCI
# How it was run: as §4
# hEP1 = biological target: T7, hEP1 (Homo sapiens, UniProt P34995); experiment: FLIPR calcium signal, hEP1; type: cell-based; settings: Table 3, third part
# T7 construct: expressed in transfected cells; host or cells: HEK-293(EBNA)
# T7 sequence (P34995 1-402): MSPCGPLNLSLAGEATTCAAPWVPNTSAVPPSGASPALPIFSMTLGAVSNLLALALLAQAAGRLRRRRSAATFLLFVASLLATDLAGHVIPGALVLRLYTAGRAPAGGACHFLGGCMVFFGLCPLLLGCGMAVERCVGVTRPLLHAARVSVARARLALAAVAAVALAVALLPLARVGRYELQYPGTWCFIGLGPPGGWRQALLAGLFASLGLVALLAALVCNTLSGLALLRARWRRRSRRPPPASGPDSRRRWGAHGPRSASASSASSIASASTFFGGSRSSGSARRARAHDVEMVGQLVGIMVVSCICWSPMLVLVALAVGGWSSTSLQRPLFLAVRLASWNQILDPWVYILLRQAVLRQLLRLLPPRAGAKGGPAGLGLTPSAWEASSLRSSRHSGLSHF
# Protocol: as §5, §6, §7, §8
structure (smiles),measurement,setting,value
CCCCCC(=O)c1ccc([C@@H]2[C@@H](C/C=C\CCCC(=O)OC(C)C)[C@H](Cl)C[C@H]2O)cc1,RABBIT Max. hyperemia,rabbits; Conc. 0.10% (0.1%) g/100 mL,0
same,MONKEY Max. ΔIOP (mm Hg),monkeys; Conc. 0.10% (0.1%) g/100 mL,20 mm Hg
same,DOG Max. hyperemia,Beagle dogs [1],0.8
CCCCCC(O)c1ccc([C@@H]2[C@@H](C/C=C\CCCC(=O)OC(C)C)[C@H](Cl)C[C@H]2Cl)cc1 (some centres unmarked),DOG Max. ΔIOP (mm Hg),Beagle dogs [2],−12 mm Hg
same,RABBIT Max. hyperemia,rabbits; Conc. 0.10% (0.1%) g/100 mL,0.0
same,MONKEY Max. ΔIOP (mm Hg),monkeys; Conc. 0.10% (0.1%) g/100 mL,19 mm Hg
same,DOG Max. hyperemia,Beagle dogs [1],0.6
O=C(O)CCC/C=C\C[C@@H]1[C@@H](c2ccc(C(O)C3CCCCC3)cc2)[C@H](O)C[C@H]1Cl (some centres unmarked) [drawing 239],DOG Max. ΔIOP (mm Hg),Beagle dogs [2],−4 mm Hg
same,RABBIT Max. hyperemia,rabbits; Conc. 0.10% (0.1%) g/100 mL,0
same,DOG Max. hyperemia,Beagle dogs [1],1
CC(C)OC(=O)CCCCCC[C@@H]1[C@@H](c2ccc(C(C)(C)C)cc2)[C@H](O)C[C@H]1Cl,RABBIT Max. hyperemia,rabbits; Conc. 0.01% g/100 mL,0.1
same,MONKEY Max. ΔIOP (mm Hg),monkeys; Conc. 0.01% g/100 mL,8 mm Hg
CC(C)C(O)c1ccc([C@@H]2[C@@H](CCCCCCC(=O)O)[C@H](Cl)C[C@H]2O)cc1 (some centres unmarked),Ki,HEP3,3.02 µM
same,EC50,hEP2/Gqs5,> 10 µM
CCCCCC(O)c1ccc([C@@H]2[C@@H](C/C=C\CCCC(=O)O)[C@H](Cl)C[C@H]2Cl)cc1 (some centres unmarked),Ca2+ Signal-EC50 (nM) IP,hIP,not active
same,Ca2+ Signal-EC50 (nM) FP,hFP,not active
same,Ca2+ Signal-EC50 (nM) TP,hTP,not active
same,Ca2+ Signal-EC50 (nM) EP4,hEP4/Gqs5,not active
same,Ca2+ Signal-EC50 (nM) EP1,hEP1,not active
CC(C)OC(=O)CCC/C=C\C[C@@H]1[C@@H](c2ccc3c(c2)CCC3O)[C@H](O)C[C@H]1Cl (some centres unmarked),DOG Max. ΔIOP (mm Hg),Beagle dogs [2],−12 mm Hg
same,RABBIT Max. hyperemia,rabbits; Conc. 0.10% (0.1%) g/100 mL,0.25
CC(C)C(O)c1ccc([C@@H]2[C@@H](C/C=C\CCCC(=O)O)[C@H](Cl)C[C@H]2O)cc1 (some centres unmarked),Ki,HEP3,1.34 µM
same,EC50,hEP2/Gqs5,0.497 µM
CC(C)OC(=O)CCC/C=C\C[C@@H]1[C@@H](c2ccc(C(C)(C)CO)cc2)[C@H](O)C[C@H]1Cl,DOG Max. ΔIOP (mm Hg),Beagle dogs [2],−5 mm Hg
same,RABBIT Max. hyperemia,rabbits; Conc. 0.10% (0.1%) g/100 mL,0.1
same,MONKEY Max. ΔIOP (mm Hg),monkeys; Conc. 0.10% (0.1%) g/100 mL,6 mm Hg
same,DOG Max. hyperemia,Beagle dogs [1],0.7
CCCCCC(O)c1ccc([C@@H]2[C@@H](C/C=C\CCCC(=O)O)[C@H](Cl)C[C@@H]2Cl)cc1 (some centres unmarked),Ca2+ Signal-EC50 (nM) IP,hIP,not active
same,Ca2+ Signal-EC50 (nM) FP,hFP,not active
same,Ca2+ Signal-EC50 (nM) TP,hTP,not active
same,EC50,hEP4/Gqs5; read-out: Ca2+ Signal-EC50 (nM) EP4,10000 nM
same,Ca2+ Signal-EC50 (nM) EP1,hEP1,not active
CC(C)(C)c1ccc([C@@H]2[C@@H](CCCCCCC(=O)O)[C@H](Cl)C[C@H]2O)cc1 [drawing 237],DOG Max. ΔIOP (mm Hg),Beagle dogs [2],−4 mm Hg
same,RABBIT Max. hyperemia,rabbits; Conc. 0.10% (0.1%) g/100 mL,0
same,DOG Max. hyperemia,Beagle dogs [1],0.9
